PMC6704644 (Journal of Experimental & Clinical Cancer Research : CR, 2019)

Target: T1, mPGES-1 (microsomal prostaglandin E synthase-1) (Homo sapiens, UniProt O14684)
T1 construct: gene PTGES
T1 sequence (O14684 1-152): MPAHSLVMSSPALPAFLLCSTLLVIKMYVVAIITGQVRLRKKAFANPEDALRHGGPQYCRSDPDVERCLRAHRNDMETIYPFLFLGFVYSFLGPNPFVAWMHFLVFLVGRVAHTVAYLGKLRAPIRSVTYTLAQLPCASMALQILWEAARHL
Test: CETSA in U87 cell lysates (temperature- and dose-dependent), plus enzyme activity inhibition IC50
Format: cell-based

- IC50: 17.4 µM
SMILES: O=C(/C=C/c1ccc(O)cc1)c1ccc(O)cc1O [ISL, isoliquiritigenin]
